The source of these data is PMC5039417, “Aberrant Glycosylation of Anchor-Optimized MUC1 Peptides Can Enhance Antigen Binding Affinity and Reverse Tolerance to Cytotoxic T Lymphocytes” (Biomolecules, 2016).

No end group written: not given here.

One assay addresses HLA-A*0201 molecules (Homo sapiens, UniProt P04439, D140Y/D185E/D98H/E176V/E277Q/G131W/G231S/I119V/I121R/I166T/I218V/L300P/L318F/N151K/N90K/P208A/P217A/Q86G/Q94H/R138H/R169H/T345S). Description: Competitive peptide inhibition assay (F1-peptide displacement on T2 cells).
Assay [1] relates to MCF-7 cells (MUC1+, HLA-A*0201+). Description: 51Cr-release assay, peptide-induced CTLs from normal donors. The class given is cell-based, human.
The test system of assay [2] is MCF-7 cells (HLA-A*0201+, MUC1+). Description: 51Cr-release assay, peptide-induced CTLs from breast cancer patients. The format is cell-based, human. The text has this:
Figure 7 In vitro stimulation of T cells from HLA-A*0201^+ cancer patients (peri-menopausal) with anchor-optimized and/or glycosylated MUC1 peptides elicited strong CTL activity. (A) PBLs underwent two rounds of stimulation and sorted CD8^+ T cells were subjected to a ^51Cr-release assay. Targets were MCF-7 cells (HLA-A*0201^+, MUC1^+). Effector:target ratio was 100:1 and spontaneous release was less than 25% of complete lysis. The filled triangles designate normal individuals and the open triangles designate breast cancer patients. […] Following two rounds of stimulation, CD8^+ cells were maintained for 24 h on an ELISpot plate. Spot numbers were determined using computer assisted video image analysis by Zellnet Consulting Inc. (FortLee, NJ, USA). There was no evidence of a significance difference in spot numbers between cancer patients and healthy controls (Wilcoxon rank sum test; p > 0.05).
An optimized protocol for the generation of peptide-specific CTLs was developed that relied upon autologous DCs for stimulation. PBMCs (2 × 10^6 cells/mL of AIM V medium) were transferred to a 24-well plate and incubated for 2 h at 37 °C. Non-adherent lymphocytes were washed off with PBS and the adherent cells were cultured in X-VIVO medium containing GM-CSF (1000 U/mL) and IL-4 (1000 U/mL) to generate DCs. […] DCs were analyzed by flow cytometry for appropriate maturation markers. […] Five to seven days later, T cells were analyzed for cytolytic activity by ^51Cr-release assay and interferon gamma production by ELISPOT.
The lytic activity of the in vitro stimulated peptide-specific CTLs was measured by a standard six-hour ^51Cr-release assay. […] After incubation, 30 μL of supernatant was transferred onto LUMA plates (Perkin Elmer, Waltham, MA, USA) and radioactive ^51Cr release was measured in a Topcount Micro-scintillation Counter (Packard Biosciences, Shelton, CT, USA). […]

Assay [3] relates to CD8+ T cells from HLA-A*0201 breast cancer patients. Description: 3H-thymidine proliferation of T cells from breast cancer patients. The note with it: 23 HLA-A*0201 breast cancer patients, DCs pulsed with 10 μg/mL peptide + IL-2, 5 days, vs no-peptide stimulated T cells. The format is cell-based, human. As for the experimental part:
CD8^+ T cells from the patients were incubated with irradiated autologous DCs pulsed with the various MUC1 peptides (10 μg/mL) plus IL-2 for 5 days and proliferation was assessed by measuring the ^3H-thymidine uptake. T cells from ~38% of the breast cancer patients responded to the selected MUC1 peptides (Figure 6).
Figure 6 T cells from ~38% of the HLA-A2^+ breast cancer patients regardless of their stage, ER/PR and HER2 status responded to the selected MUC1 peptides. 1 × 10^5 T cells were incubated with irradiated […] DCs pulsed with the various MUC1 peptides (10 μg/mL) + IL-2 for 5 days in complete media. Proliferation was assessed by measuring the ^3H-thymidine uptake and is reported as fold increase in counts per minute. The dotted line indicates the two-fold increase in proliferation.

For assay [4], the target named is HLA-A*0201 molecules on T2 cells (Homo sapiens, UniProt P04439, D140Y/D185E/D98H/E176V/E277Q/G131W/G231S/I119V/I121R/I166T/I218V/L300P/L318F/N151K/N90K/P208A/P217A/Q86G/Q94H/R138H/R169H/T345S). Description: MHC stabilization assay on T2 cells (fluorescence index). The class given is cell-based. As to conditions: peptide 0–100 μg/mL, β2-microglobulin 1 μg/mL, 18 h 37 °C, BB7.2 antibody, flow cytometry. As for the experimental part:
Figure 1 MUC1 peptides (anchor-optimized and glycosylated) stabilized HLA-A*0201 molecules on T2 cells. Increasing amounts of the MUC1 peptides (0–100 μg/mL) and β2-microglobulin (1 μg/mL) were incubated with T2 cells for 18 h at 37 °C prior to staining with the HLA-A*0201 antibody (clone BB7.2, Pharmingen). Mean fluorescence intensity (MFI) was determined by flow cytometry and the fluorescence index (FI) was calculated from the formula: FI = (FS − FB)/(FT2 − FB) × 100 where FS is the MFI of the test peptides, FB is the non-peptide isotype antibody-stained control MFI, and FT2 is the non-peptide HLA-A*0201 antibody-stained control MFI.
Peptide binding to HLA-A*0201 was analyzed using TAP1- and TAP2-deficient T2 cells which express the HLA-A*0201 allele. […] Binding of the peptides was measured using flow cytometry for upregulation of HLA-A2 surface expression on the T2 cells. […] Mean fluorescence intensity (MFI) was determined and the fluorescence index (FI) was calculated from the formula: FI = (FS − FB)/(FT2 − FB) × 100 where FS is the MFI of the test peptides, FB is the no-peptide isotype antibody-stained control MFI, and FT2 is the no-peptide HLA-A2 antibody-stained control MFI [52].
(In general: A flow cytometer gives signals particle by particle.)

Assay [5] deals with CD8+ T cells (IFNγ production). Description: IFNγ ELISpot of peptide-induced CD8+ T cells. The format is cell-based, human. How it is done: Figure 5 Production of IFNγ by CD8^+ T cells was induced in response to MUC1 peptides. Following two rounds of stimulation, CD8^+ cells were maintained for 24 h on an ELISpot plate. Spot numbers were determined using computer assisted video image analysis by Zellnet Consulting Inc. There were no significance differences compared to the negative peptide (p > 0.05).
IFNγ ELISpot plates from Mabtech (Stockholm, Sweden) were used to detect IFNγ producing MUC1-specific CTLs. The assay was performed using the capture IFNγ antibody as recommended by the manufacturer. Day five post R2-stimulation, the CTLs were washed three times and 1 × 10^5 cells were transferred to the washed and blocked IFNγ ELISpot plates and incubated at 37 °C in a 5% CO2 incubator for 24 h. After incubation the plates were washed with PBS, incubated with alkaline phosphatase-conjugated IFNγ antibody at room temperature for two hours and then spots were detected with BCIP/NBT substrate. Spot numbers were determined using computer assisted video image analysis by Zellnet Consulting Inc. (Fort Lee, NJ, USA).

Take `CC(C)C[C@H](NC(=O)[C@@H](N)CO)C(=O)N[C@@H](C)C(=O)N1CCC[C@H]1C(=O)N1CCC[C@H]1C(=O)N[C@H](C(=O)N[C@@H](Cc1c[nH]cn1)C(=O)N[C@@H](CC(N)=O)C(=O)N[C@H](C(=O)O)C(C)C)C(C)C` [P15]: on HLA-A*0201 molecules, the IC50 (usually the concentration needed to halve the response being measured) was 363 nM.
With “ALGSTAPPV [P9, unmodified native MUC1 degenerate TR peptide, reference compound]”, the “% of Donors with at Least 30% Cell Kill” value in assay [1] (normal donors (n = 8), MCF-7 targets, E:T 100:1, 30% cell kill considered a response) is reported as 12.50%.
Compound LLLLTVLTV [P5] gave an IC50 on HLA-A*0201 molecules of 11100 nM.
As to SLSYTNPAV [P7], the IC50 at HLA-A*0201 molecules was 441 nM.
As to “STAPPVHNV [P1, native MUC1 degenerate tandem repeat peptide]”, the “Lysis of MCF-7 cells by T cells from cancer samples” value in assay [2] (all three breast cancer patient samples, E:T 100:1) is “greater than 30%”. In assay [2] (three breast cancer patients, MCF-7 targets), the “Activation of lytic T cells from breast cancer patients” value was “effectively activated lytic T cells from all three breast cancer patients”. Besides, in assay [3], the “Patients responding with >2-fold increase in proliferation” value is on record as 8/23. Further, the “IC50 (concentration producing 50% inhibition of F1-peptide binding)” value on HLA-A*0201 molecules (T2 cells, F1-peptide 100 ng/mL, β2-microglobulin 1 μg/mL, competitor 0–100 μg/mL, flow cytometry MFI, Prism) stood at 10.13 µg/mL. In addition, the “Affinity class of binder to HLA-A*0201” value at HLA-A*0201 molecules (scored from IC50 in the competition assay on T2 cells) was “medium (“medium affinity binders” with IC50 of ≥to 5 μg/mL and <15 μg/mL)”. Besides, in assay [4], the “Binding to HLA-A*0201 on T2 cells by fluorescence index (FI)” value is “bound moderately”. For the same compound, in assay [1] (8 normal post-menopausal HLA-A*0201 women, E:T 100:1, 6 h, p = 0.008 vs negative control P11), the “Lysis of MCF-7 cells by CTLs elicited with the peptide” value was “did not elicit lytic T cells”.
As for “STAPT(Tn)VHNV [P2, Tn-glycosylated MUC1 peptide]”, the “IFNγ production by CTLs elicited by the peptide, one individual” value in assay [5] (CTLs from one normal individual) is given as “strong production of IFNγ”. Also, the “IFNγ production by CD8+ T cells generated to the peptide” value in assay [5] (normal donors, two rounds of stimulation, 24 h on ELISpot plate) was “showed production of IFNγ”. Moreover, in assay [1] (CTLs from one normal individual, E:T 100:1), the “Lysis of MCF-7 cells by CTLs elicited with the peptide, one individual” value is reported as “low lysis”.
